Assay results taken from patent US4098782A, “(His^5)-somatostatin and analogues thereof” (American Home Products Corporation, priority 1977, dated 1978).
Bridge positions count the residues as written; N and C are the ends. Peptide text beside a SMILES is read from it.

Assays:
Type in all cases: in vivo
glucagon = test: Arginine-stimulated glucagon secretion in Nembutal-anesthetized rats; details: for Glucagon: albino male rats, blood 15 min after dose (5 min after arginine), control 51 ± 4, * = p < 0.01
Protocol: (§1) Albino male rats were administered Nembutal intraperitoneally at a dose of 50 milligrams per kilogram. Fifteen minutes later a subcutaneous injection of the test compound or physiological saline was administered. Ten minutes later 0.5 milliliters of arginine (300 milligrams per milliliter, pH 7.2) is injected into the heart. Five minutes after receipt of the arginine the rats are decapitated and blood is collected into trasylol-EDTA. An appropriate aliquot was assayed for growth hormone, insulin and glucagon.

growth hormone = test: Arginine-stimulated growth hormone secretion in Nembutal-anesthetized rats; details: for GH: albino male rats, blood 15 min after dose (5 min after arginine), control 288 ± 30, * = p < 0.01
Protocol: as §1

insulin = test: Arginine-stimulated insulin secretion in Nembutal-anesthetized rats; details: for Insulin: albino male rats, blood 15 min after dose (5 min after arginine), control 372 ± 47
Protocol: as §1

C[C@H](N)C(=O)NCC(=O)N[C@H]1CSSC[C@@H](C(=O)O)NC(=O)[C@H](CO)NC(=O)[C@H]([C@@H](C)O)NC(=O)[C@H](Cc2ccccc2)NC(=O)[C@H]([C@@H](C)O)NC(=O)[C@H](CCCCN)NC(=O)[C@H](Cc2c[nH]c3ccccc23)NC(=O)[C@H](Cc2ccccc2)NC(=O)[C@H](Cc2ccccc2)NC(=O)[C@H](Cc2c[nH]cn2)NC(=O)[C@H](CCCCN)NC1=O [(His^5)SRIF, L-Alanyl-glycyl-L-cysteinyl-lysyl-L-histidyl-L-phenylalanyl-L-phenylalanyl-L-tryptophyl-L-lysyl-L-threonyl-L-phenylalanyl-L-threonyl-L-seryl-L-cysteine(3-14 cyclic)disulfide] (H-AGCKHFFWKTFTSC-OH; disulfide 3-14)
Glucagon (glucagon; 1300 ug/kg subcutaneous): 31 ± 6 pg/mL
reducing secretion of glucagon (in words) (glucagon; summary of rat assay): effective agent for reducing secretion of growth hormone and glucagon
GH (growth hormone; 1300 ug/kg subcutaneous): 83 ± 15 ng/mL
reducing secretion of growth hormone (in words) (growth hormone; summary of rat assay): effective agent for reducing secretion of growth hormone
Insulin (insulin; 1300 ug/kg subcutaneous): 390 ± 94 μU/ml
effect on insulin levels (in words) (insulin; summary of rat assay): without materially affecting insulin levels

C[C@H](N)C(=O)NCC(=O)N[C@H]1CSSC[C@@H](C(=O)O)NC(=O)[C@H](CO)NC(=O)[C@H]([C@@H](C)O)NC(=O)[C@H](Cc2ccccc2)NC(=O)[C@H]([C@@H](C)O)NC(=O)[C@H](CCCCN)NC(=O)[C@H](Cc2c[nH]c3ccccc23)NC(=O)[C@H](Cc2ccccc2)NC(=O)[C@H](Cc2ccccc2)NC(=O)[C@H](CC(N)=O)NC(=O)[C@H](CCCCN)NC1=O [SRIF, reference compound]
Glucagon (glucagon; 200 ug/kg subcutaneous): 26 ± 6 pg/mL
GH (growth hormone; 200 ug/kg subcutaneous): 66 ± 11 ng/mL
Insulin (insulin; 200 ug/kg subcutaneous, + = p < 0.05): 232 ± 23 μU/ml
